Test results: patent US20250250230A1, “HETEROCYCLIC COMPOUND” (TAKEDA PHARMACEUTICAL COMPANY LIMITED, priority 2022, published 2025)

These compounds were tested against T1, human orexin type 2 receptor (Homo sapiens, UniProt O43614) (assay: Measurement of orexin type 2 receptor agonist activity (calcium fluorescence, Fluo-4 AM, FDSS)). Details: test compound 3 μM; CHO cells expressing human OX2 receptor; DMSO = 0%, orexin A (human) = 100%.
T1 construct: expressed in transfected cells
T1 sequence (O43614 1-444): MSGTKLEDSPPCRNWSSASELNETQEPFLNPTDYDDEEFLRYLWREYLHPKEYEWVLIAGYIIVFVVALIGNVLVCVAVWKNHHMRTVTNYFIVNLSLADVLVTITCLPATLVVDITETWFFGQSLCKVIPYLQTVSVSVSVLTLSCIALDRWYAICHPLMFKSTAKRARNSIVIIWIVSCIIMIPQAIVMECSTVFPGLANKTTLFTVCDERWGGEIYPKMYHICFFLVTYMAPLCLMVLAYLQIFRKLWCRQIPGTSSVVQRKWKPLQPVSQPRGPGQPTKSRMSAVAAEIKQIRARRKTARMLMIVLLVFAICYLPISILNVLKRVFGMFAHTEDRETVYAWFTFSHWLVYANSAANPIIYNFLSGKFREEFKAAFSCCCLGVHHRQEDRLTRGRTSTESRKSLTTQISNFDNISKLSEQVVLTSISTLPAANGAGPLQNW
Type: cell-based
Outline: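 Agonist response scaled between vehicle (0%) and human orexin A at 10 nM final (100%), from 2-min kinetic Fluo-4 fluorescence reads. Stable hOX2R CHO-K1 clone, dye-loaded in HBSS/20 mM HEPES/0.1% BSA with 1.25 mM probenecid before compound addition.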

OX2R agonist activity (3 μM, %) | Compound
98% | CS(=O)(=O)NC12CCC1CN(C(=O)C1CC1c1ccccc1-c1c(F)cccc1F)C2 (stereo not drawn) [Example 273, N-{3-[2-(2′,6′-difluoro[1,1′-biphenyl]-2-yl)cyclopropane-1-carbonyl]-3-azabicyclo[3.1.0]hexan-1-yl}methanesulfonamide optical isomer]
86% | CC1(C(=O)N2CCCC[C@H](NS(C)(=O)=O)C2)CC1c1ccccc1-c1c(F)cccc1F (stereo partly drawn) [Example 274, N-{(3S)-1-[(1R,2S)-2-(2′,6′-difluoro[1,1′-biphenyl]-2-yl)-1-methylcyclopropane-1-carbonyl]azepan-3-yl}methanesulfonamide, or N-{(3S)-1-[(1S,2R)-2-(2′,6′-difluoro[1,1′-biphenyl]-2-yl)-1-methylcyclopropane-1-carbonyl]azepan-3-yl}methanesulfonamide]
101% | CS(=O)(=O)NCC1CCN1C(=O)C1CC1c1ccccc1-c1c(F)cccc1F (stereo not drawn) [Example 276, N-({1-[2-(2′,6′-difluoro[1,1′-biphenyl]-2-yl)cyclopropane-1-carbonyl]azetidin-2-yl}methyl)methylsulfonamide optical isomer]
87% | CS(=O)(=O)N[C@@H]1CN(C(=O)[C@@H]2C[C@H]2c2ccccc2-c2c(F)cccc2F)C[C@H]1F [Example 279, N-{(3R,4R)-1-[(1R,2R)-2-(2′,6′-difluoro[1,1′-biphenyl]-2-yl)cyclopropane-1-carbonyl]-4-fluoropyrrolidin-3-yl}methanesulfonamide]
87% | CS(=O)(=O)NC[C@H]1CN(C(=O)[C@@H]2C[C@H]2c2ccccc2-c2c(F)cccc2F)CCO1 [Example 282, N-({(2R)-4-[(1R,2R)-2-(2′,6′-difluoro[1,1′-biphenyl]-2-yl)cyclopropane-1-carbonyl]morpholin-2-yl}methyl)methanesulfonamide]
100% | CS(=O)(=O)NC[C@@H]1CN(C(=O)[C@@H]2C[C@H]2c2ccccc2-c2c(F)cccc2F)CCO1 [Example 283, N-({(2S)-4-[(1R,2R)-2-(2′,6′-difluoro[1,1′-biphenyl]-2-yl)cyclopropane-1-carbonyl]morpholin-2-yl}methyl)methanesulfonamide]
101% | CC1C(NS(C)(=O)=O)CCN1C(=O)[C@@H]1C[C@H]1c1ccccc1-c1c(F)cccc1F (stereo partly drawn) [Example 297, N-{(2R,3R)-1-[(1R,2R)-2-(2′,6′-difluoro[1,1′-biphenyl]-2-yl)cyclopropane-1-carbonyl]-2-methylpyrrolidin-3-yl}methanesulfonamide, or N-{(2S,3S)-1-[(1R,2R)-2-(2′,6′-difluoro[1,1′-biphenyl]-2-yl)cyclopropane-1-carbonyl]-2-methylpyrrolidin-3-yl}methanesulfonamide]
100% | CN(C)S(=O)(=O)NC[C@H]1CCN1C(=O)[C@@H]1C[C@H]1c1ccccc1-c1c(F)cccc1F [Example 298, N′-({(2R)-1-[(1R,2R)-2-(2′,6′-difluoro[1,1′-biphenyl]-2-yl)cyclopropane-1-carbonyl]azetidin-2-yl}methyl)-N,N-dimethylsulfuric diamide]
97% | CN(C)S(=O)(=O)N[C@H]1CCCN(C(=O)[C@@H]2C[C@H]2c2ccccc2-c2c(F)cccc2F)C1 [Example 302, N′-{(3S)-1-[(1R,2R)-2-(2′,6′-difluoro[1,1′-biphenyl]-2-yl)cyclopropane-1-carbonyl]piperidin-3-yl}-N,N-dimethylsulfuric diamide]
100% | CN(C)S(=O)(=O)N[C@H]1CCCN(C(=O)[C@@H]2C[C@H]2c2c(F)cccc2-c2c(F)cccc2F)C1 [Example 312, N,N-dimethyl-N′-{(3S)-1-[(1R,2R)-2-(2′,3,6′-trifluoro[1,1′-biphenyl]-2-yl)cyclopropane-1-carbonyl]piperidin-3-yl}sulfuric diamide]
99% | CN(C)S(=O)(=O)NC[C@@H]1CCN1C(=O)C1CC1c1c(F)cccc1-c1c(F)cccc1F (stereo partly drawn) [Example 314, N,N-dimethyl-N′-({(2S)-1-[(1R,2R)-2-(2′,3,6′-trifluoro[1,1′-biphenyl]-2-yl)cyclopropane-1-carbonyl]azetidin-2-yl}methyl)sulfuric diamide, or N,N-dimethyl-N′-({(2S)-1-[(1S,2S)-2-(2′,3,6′-trifluoro[1,1′-biphenyl]-2-yl)cyclopropane-1-carbonyl]azetidin-2-yl}methyl)sulfuric diamide]
96% | Cc1ccc(C2CC2C(=O)N2CC[C@H](NS(C)(=O)=O)C2)c(-c2c(F)cccc2F)c1 (stereo partly drawn) [Example 318, N-{(3S)-1-[(1R,2R)-2-(2′,6′-difluoro-5-methyl [1,1′-biphenyl]-2-yl)cyclopropane-1-carbonyl]pyrrolidin-3-yl}methanesulfonamide, or N-{(3S)-1-[(1S,2S)-2-(2′,6′-difluoro-5-methyl[1,1′-biphenyl]-2-yl)cyclopropane-1-carbonyl]pyrrolidin-3-yl}methanesulfonamide]
96% | CO[C@@H]1CN(C(=O)[C@@H]2C[C@H]2c2ccccc2-c2c(F)cccc2F)C[C@H]1NS(C)(=O)=O [Example 323, N-{(3R,4R)-1-[(1R,2R)-2-(2′,6′-difluoro[1,1′-biphenyl]-2-yl)cyclopropane-1-carbonyl]-4-methoxypyrrolidin-3-yl}methanesulfonamide]

Further lines, the compound ahead of its results:

Compound | OX2R agonist activity (3 μM, %)
C[C@H]1C[C@H](NS(=O)(=O)N(C)C)CN1C(=O)[C@@H]1C[C@H]1c1ccccc1-c1c(F)cccc1F [Example 281, N′-{(3S,5S)-1-[(1R,2R)-2-(2′,6′-difluoro[1,1′-biphenyl]-2-yl)cyclopropane-1-carbonyl]-5-methylpyrrolidin-3-yl}-N,N-dimethylsulfuric diamide] | 96%
CN(C)S(=O)(=O)N[C@H]1CCN(C(=O)[C@@H]2C[C@H]2c2ccccc2-c2c(F)cccc2F)C1 [Example 289, N′-{(3S)-1-[(1R,2R)-2-(2′,6′-difluoro[1,1′-biphenyl]-2-yl)cyclopropane-1-carbonyl]pyrrolidin-3-yl}-N,N-dimethylsulfuric diamide] | 99%
CCS(=O)(=O)NC1COCCN(C(=O)[C@@H]2C[C@H]2c2ccccc2-c2c(F)cccc2F)C1 (stereo partly drawn) [Example 294, N-{(6S)-4-[(1R,2R)-2-(2′,6′-difluoro [1,1′-biphenyl]-2-yl)cyclopropane-1-carbonyl]-1,4-oxazepan-6-yl}ethanesulfonamide, or N-{(6R)-4-[(1R,2R)-2-(2′,6′-difluoro[1,1′-biphenyl]-2-yl)cyclopropane-1-carbonyl]-1,4-oxazepan-6-yl}ethanesulfonamide] | 104%
CN(C)S(=O)(=O)NC1COCCN(C(=O)[C@@H]2C[C@H]2c2ccccc2-c2c(F)cccc2F)C1 (stereo partly drawn) [Example 295, N′-{(6S)-4-[(1R,2R)-2-(2′,6′-difluoro[1,1′-biphenyl]-2-yl)cyclopropane-1-carbonyl]-1,4-oxazepan-6-yl}-N,N-dimethylsulfuric diamide, or N′-{(6R)-4-[(1R,2R)-2-(2′,6′-difluoro[1,1′-biphenyl]-2-yl)cyclopropane-1-carbonyl]-1,4-oxazepan-6-yl}-N,N-dimethylsulfuric diamide] | 100%
CN(C)S(=O)(=O)NC[C@@H]1CN(C(=O)[C@@H]2C[C@H]2c2ccccc2-c2c(F)cccc2F)CCO1 [Example 299, N′-({(2S)-4-[(1R,2R)-2-(2′,6′-difluoro[1,1′-biphenyl]-2-yl)cyclopropane-1-carbonyl]morpholin-2-yl}methyl)-N,N-dimethylsulfuric diamide] | 90%
CCS(=O)(=O)N[C@H]1CCCN(C(=O)[C@@H]2C[C@H]2c2c(F)cccc2-c2c(F)cccc2F)C1 [Example 307, N-{(3S)-1-[(1R,2R)-2-(2′,3,6′-trifluoro[1,1′-biphenyl]-2-yl)cyclopropane-1-carbonyl]piperidin-3-yl}ethanesulfonamide] | 100%
CN(C)S(=O)(=O)N[C@H]1CCN(C(=O)[C@@H]2C[C@H]2c2c(F)cccc2-c2c(F)cccc2F)C1 [Example 309, N,N-dimethyl-N′-{(3S)-1-[(1R,2R)-2-(2′,3,6′-trifluoro[1,1′-biphenyl]-2-yl)cyclopropane-1-carbonyl]pyrrolidin-3-yl}sulfuric diamide] | 97%
C[C@H]1C[C@H](NS(C)(=O)=O)CN1C(=O)C1(C)CC1c1ccccc1-c1c(F)cccc1F (stereo partly drawn) [Example 315, N-{(3S,5S)-1-[(1R,2S)-2-(2′,6′-difluoro[1,1′-biphenyl]-2-yl)-1-methylcyclopropane-1-carbonyl]-5-methylpyrrolidin-3-yl}methanesulfonamide, or N-{(3S,5S)-1-[(1S,2R)-2-(2′,6′-difluoro[1,1′-biphenyl]-2-yl)-1-methylcyclopropane-1-carbonyl]-5-methylpyrrolidin-3-yl}methanesulfonamide] | 91%
CS(=O)(=O)N[C@H]1C[C@H](O)CN(C(=O)[C@@H]2C[C@H]2c2ccccc2-c2c(F)cccc2F)C1 [Example 319, N-{(3S,5S)-1-[(1R,2R)-2-(2′,6′-difluoro[1,1′-biphenyl]-2-yl)cyclopropane-1-carbonyl]-5-hydroxypiperidin-3-yl}methanesulfonamide] | 101%
